Laboratory results from PubChem BioAssay AID248 (DTP/NCI, 2004).
Values joined by “and” are separate entries in the source; they are usually repeats but may differ in a detail not shown here. Equal values may be shown once. Inconclusive results and toxic doses are left out. Rule as the data show it: active = T/C of 150% or more; inactive = T/C below 125%.

System: L1210 leukemia ip in BDF1 mice, survival T/C
Assay: NCI In Vivo Anticancer Drug Screen. Data for tumor model L1210 Leukemia (intraperitoneal) in B6D2F1 (BDF1) mice
Conditions: endpoint: mean survival time, higher = longer survival
How it was run: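 Ratio derived from survival: compound-dosed mice over vehicle-dosed mice, all bearing a transplantable tumor.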

[1] = dose: 75.0 mg/kg/injection, schedule: Q01DX001 (ip), vehicle: saline
[2] = dose: 150.0 mg/kg/injection, schedule: Q01DX001 (ip), vehicle: saline
[3] = dose: 25.0 mg/kg/injection, schedule: Q01DX009 (ip), vehicle: saline
[4] = dose: 50.0 mg/kg/injection, schedule: Q01DX009 (ip), vehicle: saline
[5] = dose: 100.0 mg/kg/injection, schedule: Q01DX009 (ip), vehicle: saline
[6] = dose: 100.0 mg/kg/injection, schedule: Q04DX003 (ip), vehicle: saline
[7] = dose: 200.0 mg/kg/injection, schedule: Q01DX009 (ip), vehicle: saline
[8] = dose: 200.0 mg/kg/injection, schedule: Q04DX003 (ip), vehicle: saline
[9] = dose: 400.0 mg/kg/injection, schedule: Q01DX009 (ip), vehicle: saline
[10] = dose: 400.0 mg/kg/injection, schedule: Q04DX003 (ip), vehicle: saline
[11] = dose: 100.0 mg/kg/injection, schedule: Q01DX001 (ip), vehicle: saline with Tween-80
[12] = dose: 200.0 mg/kg/injection, schedule: Q01DX001 (ip), vehicle: saline with Tween-80
[13] = dose: 400.0 mg/kg/injection, schedule: Q01DX001 (ip), vehicle: saline with Tween-80
[14] = dose: 100.0 mg/kg/injection, schedule: Q01DX009 (ip), vehicle: saline with Tween-80
[15] = dose: 200.0 mg/kg/injection, schedule: Q01DX009 (ip), vehicle: saline with Tween-80
[16] = dose: 100.0 mg/kg/injection, schedule: Q01DX009 (ip), vehicle: Klucel (hydroxypropylcellulose) (HPC)
[17] = dose: 12.5 mg/kg/injection, schedule: Q01DX009 (ip), vehicle: saline with Tween-80
[18] = dose: 25.0 mg/kg/injection, schedule: Q01DX009 (ip), vehicle: saline with Tween-80
[19] = dose: 50.0 mg/kg/injection, schedule: Q01DX009 (ip), vehicle: saline with Tween-80
[20] = dose: 100.0 mg/kg/injection, schedule: Q01DX001 (ip), vehicle: saline
[21] = dose: 200.0 mg/kg/injection, schedule: Q01DX001 (ip), vehicle: saline
[22] = dose: 400.0 mg/kg/injection, schedule: Q01DX001 (ip), vehicle: saline
[23] = dose: 6.25 mg/kg/injection, schedule: Q01DX009 (ip), vehicle: saline with Tween-80

Measured: T/C

CCCC(CCC)CCCCC(CCC)CCC
inactive: [1] 96 % of control | [2] 96 % of control | dose: 300.0 mg/kg/injection, schedule: Q01DX001 (ip), vehicle: saline 94 % of control

CCCCCCCCN(N)C12CC3CC(CC(C3)C1)C2
inactive: dose: 6.25 mg/kg/injection, schedule: Q01DX009 (ip), vehicle: saline 106 % of control | dose: 12.5 mg/kg/injection, schedule: Q01DX009 (ip), vehicle: saline 107 % of control | dose: 12.5 mg/kg/injection, schedule: Q04DX003 (ip), vehicle: saline 113 % of control | [3] 106 % of control | dose: 25.0 mg/kg/injection, schedule: Q04DX003 (ip), vehicle: saline 113 % of control | [4] 87 % of control | dose: 50.0 mg/kg/injection, schedule: Q04DX003 (ip), vehicle: saline 113 % of control

O=[N+]([O-])c1cc(Cl)c(Cl)cc1[N+](=O)[O-]
inactive: dose: 50.0 mg/kg/injection, schedule: Q04DX002 (ip), vehicle: Klucel (hydroxypropylcellulose) (HPC) 106 % of control | dose: 75.0 mg/kg/injection, schedule: Q04DX002 (ip), vehicle: Klucel (hydroxypropylcellulose) (HPC) 103 % of control | dose: 150.0 mg/kg/injection, schedule: Q04DX002 (ip), vehicle: Klucel (hydroxypropylcellulose) (HPC) 101 % of control and 110 % of control

c1ccc(-c2c[n+]3cc4ccccc4cc3cn2)cc1
inactive: [5] 91 % of control | [6] 100 % of control | [7] 96 % of control | [8] 96 % of control | [9] 97 % of control | [10] 98 % of control

CC(=O)CC=NCCN=CCC(C)=O
inactive: [11] 98 % of control | [12] 103 % of control | [13] 95 % of control

CCOC(=O)c1cc2ccccc2n1-c1ccccc1
inactive: [14] 111 % of control | [15] 104 % of control | dose: 400.0 mg/kg/injection, schedule: Q01DX009 (ip), vehicle: saline with Tween-80 104 % of control

CC12CCC3c4ccc(O)cc4CCC3C1CCC2=O (configuration not stated)
inactive: dose: 100.0 mg/kg/injection, schedule: Q01DX001 (sc), vehicle: steriod suspending solution 92 % of control | dose: 200.0 mg/kg/injection, schedule: Q01DX001 (sc), vehicle: steriod suspending solution 92 % of control | dose: 400.0 mg/kg/injection, schedule: Q01DX001 (sc), vehicle: steriod suspending solution 86 % of control

O=C(NC(=S)Nc1ccc(F)cc1)c1ccco1
inactive: dose: 50.0 mg/kg/injection, schedule: Q01DX009 (ip), vehicle: Klucel (hydroxypropylcellulose) (HPC) 94 % of control | [16] 92 % of control | dose: 100.0 mg/kg/injection, schedule: Q04DX003 (ip), vehicle: Klucel (hydroxypropylcellulose) (HPC) 103 % of control | dose: 200.0 mg/kg/injection, schedule: Q04DX003 (ip), vehicle: Klucel (hydroxypropylcellulose) (HPC) 97 % of control

c1ccc2cc3c(cc2c1)Nc1ccncc1N3
inactive: [17] 106 % of control | [18] 103 % of control | [19] 100 % of control

CCC(=O)OCN1C(=O)C2C3CCC(O3)C2C1=O (configuration not stated)
inactive: dose: 87.5 mg/kg/injection, schedule: Q01DX009 (ip), vehicle: other 98 % of control | dose: 175.0 mg/kg/injection, schedule: Q01DX009 (ip), vehicle: other 111 % of control

C[Si](C)(C)OC(C(F)(F)F)C(F)(F)F
inactive: dose: 100.0 mg/kg/injection, schedule: Q01DX001 (ip), vehicle: steriod suspending solution 98 % of control | dose: 200.0 mg/kg/injection, schedule: Q01DX001 (ip), vehicle: steriod suspending solution 96 % of control | dose: 400.0 mg/kg/injection, schedule: Q01DX001 (ip), vehicle: steriod suspending solution 86 % of control

NC(C(=O)c1ccccc1)c1ccccc1.[Cl][Sn][Cl] (configuration not stated)
inactive: [1] 102 % of control | [2] 117 % of control

Cn1c2nc(=O)[nH]c(=O)c-2cc2ccccc21
inactive: [20] 100 % of control | [21] 94 % of control | [22] 97 % of control

CC(C)=CCC/C(C)=C/CNc1ncnc2c1ncn2C1OC(CO)C(O)C1O (configuration not stated)
inactive: dose: 100.0 mg/kg/injection, schedule: Q01DX005 (ip), vehicle: saline 95 % of control | dose: 200.0 mg/kg/injection, schedule: Q01DX005 (ip), vehicle: saline 94 % of control

CCCCCc1c(CCCC)c(=O)[nH]c2ccccc12
inactive: [20] 97 % of control | [21] 98 % of control | [22] 90 % of control

NC(NCCN1CC1)(C(F)(F)F)C(F)(F)F
inactive: dose: 10.0 mg/kg/injection, schedule: Q04DX003 (ip), vehicle: Klucel (hydroxypropylcellulose) (HPC) 109 % of control | dose: 20.0 mg/kg/injection, schedule: Q01DX001 (ip), vehicle: Klucel (hydroxypropylcellulose) (HPC) 105 % of control | dose: 20.0 mg/kg/injection, schedule: Q04DX003 (ip), vehicle: Klucel (hydroxypropylcellulose) (HPC) 104 % of control | dose: 40.0 mg/kg/injection, schedule: Q01DX001 (ip), vehicle: Klucel (hydroxypropylcellulose) (HPC) 101 % of control | dose: 40.0 mg/kg/injection, schedule: Q04DX003 (ip), vehicle: Klucel (hydroxypropylcellulose) (HPC) 109 % of control

N#C/C(N)=C(\C#N)N=Cc1ccc(-c2ccccc2)cc1
inactive: [11] 97 % of control | [12] 92 % of control | [13] 93 % of control

CC(=O)Nc1ccc(NC(=O)C2CC2)cc1
inactive: [16] 95 % of control | dose: 200.0 mg/kg/injection, schedule: Q01DX009 (ip), vehicle: Klucel (hydroxypropylcellulose) (HPC) 109 % of control | dose: 400.0 mg/kg/injection, schedule: Q01DX009 (ip), vehicle: Klucel (hydroxypropylcellulose) (HPC) 104 % of control

O=C(C[n+]1ccc2ccccc2c1)c1ccc2ccccc2c1
inactive: [23] 95 % of control | [17] 87 % of control | [18] 90 % of control

O=C(c1ccccc1)C(Cl)C(O)(C(F)(F)F)C(F)(F)F (configuration not stated)
inactive: [19] 96 % of control | [14] 92 % of control | [15] 108 % of control

Cn1c(C2=CC(=O)c3ccccc3C2=O)c(C2=CC(=O)c3ccccc3C2=O)c2ccccc21
inactive: dose: 50.0 mg/kg/injection, schedule: Q01DX001 (ip), vehicle: saline 102 % of control | [20] 98 % of control | [21] 104 % of control | [22] 102 % of control

N#Cc1cc([N+](=O)[O-])c(Cl)c([N+](=O)[O-])c1Cl
inactive: dose: 3.13 mg/kg/injection, schedule: Q01DX009 (ip), vehicle: saline with Tween-80 95 % of control | [23] 108 % of control | dose: 6.25 mg/kg/injection, schedule: Q04DX003 (ip), vehicle: saline with Tween-80 98 % of control | [17] 101 % of control | dose: 12.5 mg/kg/injection, schedule: Q04DX003 (ip), vehicle: saline with Tween-80 95 % of control

CCCCOCCOCCOCCO
inactive: [5] 98 % of control | [6] 98 % of control | [7] 98 % of control | [8] 98 % of control | [9] 102 % of control | [10] 97 % of control

O=C(CBr)N=c1cc(-c2ccc(Cl)cc2)ss1
inactive: [6] 95 % of control | [8] 91 % of control | [10] 101 % of control

Cn1c(C(O)(Cc2ccccn2)Cc2ccccn2)cc2ccccc21
inactive: dose: 100.0 mg/kg/injection, schedule: Q04DX002 (ip), vehicle: saline with Tween-80 90 % of control | dose: 200.0 mg/kg/injection, schedule: Q04DX002 (ip), vehicle: saline with Tween-80 90 % of control | dose: 400.0 mg/kg/injection, schedule: Q04DX002 (ip), vehicle: saline with Tween-80 97 % of control

CCCCC(CCN(C)C)(CNC(=O)CN(CC)CC)c1cccc2ccccc12 (configuration not stated)
inactive: [3] 91 % of control | [4] 91 % of control | [5] 90 % of control | [6] 100 % of control
